The source of these data is patent US20240415989A1, “RADIOLABELED COMPOUND, AND PRECURSOR COMPOUND THEREOF, PREPARATION METHOD THEREFOR, AND APPLICATION THEREOF” (priority 2021, published 2024).

Data set [1] in a line: In vitro stability in normal saline (radiochemical purity by TLC). The format is physicochemical. The procedure: Four EP tubes were taken and marked as numbers (1) to (4) in sequence, in which 0.1 ml of normal saline was added to numbers (1) and (2), respectively, 0.1 ml of fresh human serum diluted 10 times was added to numbers (3) and (4), respectively, and then 1.0 mci of freshly prepared ^68Ga-DOTA-ibandronic acid was added to these 4 tubes, respectively. Numbers (1) and (3) were placed at room temperature (25±2° C.) and numbers (2) and (4) were placed in a 37° C. metal bath for incubation. The radiochemical purity values of numbers (1) to (4) were measured using a thin layer paper chromatography (TLC) at 10 min, 30 min, 1 h, 2 h, 3 h, 4 h, respectively.

Data set [2] can be described thus: Lipid-water distribution coefficient (n-octanol/deionized water). It is filed as physicochemical. The method, then: Three 5 ml centrifuge tubes were taken, and numbered as A-(1), A-(2) and A-(3), respectively. 0.5 ml of n-octanol, 0.485 ml of deionized water and 0.25 ml of freshly prepared ^68Ga-DOTA-ibandronic acid with about 0.5 mci were added to each tube, and the centrifuge tubes were shaken by a vortex mixer for 20 minutes, then centrifuged at 2000 r/min for 5 minutes, from which 0.1 ml of upper liquid (organic phase) was respectively collected into 3 corresponding test tubes (numbered as B-(1), B-(2), B-(3), respectively), and 0.1 ml of lower liquid (aqueous phase) was respectively collected into 3 corresponding test tubes (numbered as C-(1), C-(2), C-(3), respectively). The total radioactivity count of the organic phase and that of the aqueous phase were measured by γ counter, respectively, and the lipid-water distribution coefficient lgP was calculated by formula.

For the next data set, the system named is plasma protein. The format is in vitro ADME. Conditions: human. The method, then: 1 mL of fresh human plasma anticoagulated with heparin was taken for later use. Three EP tubes were taken and numbered as A-(1), A-(2), and A-(3), and were each added with 0.1 ml of fresh human plasma and 0.25 ml of freshly prepared ^68Ga-DOTA-ibandronic acid with about 0.5 mci. Then they were incubated in a metal bath at 37° C. for 30 minutes. Three 5 ml centrifuge tubes were taken and numbered as B-(1), B-(2), and B-(3). The incubated solutions were transferred to the corresponding centrifuge tubes, respectively. Then 1 ml of 25% trichloroacetic acid solution was added to each centrifuge tube, mixed thoroughly, then centrifuged at 2000 r/min for 5 minutes. The supernatants were respectively collected into 3 corresponding test tubes (numbered as C-(1), C-(2), C-(3), respectively). The centrifugation and supernatant collection were repeated 3 times. The total radioactivity count of the precipitations in the centrifuge tubes and that of the supernatants in the test tubes were measured by a γ counter, respectively, and the plasma protein binding rate (PPB) was calculated.

Data set [3] deals with PC-3, H1975, MDA-MB-231 bone metastasis models. The data set can be described thus: Therapeutic effect on tumor-bearing mice, free movement pain behavior scoring. It is filed as in vivo, nude mice. The method, then:
In this experimental example, the therapeutic effects of ^177Lu-DOTA-ibandronic acid of the present disclosure on tumor-bearing mice (PC-3, H1975, MDA-MB-231 bone metastasis models) were investigated. The ^177Lu-DOTA-ibandronic acid used in this experimental example was prepared according to the method of Example 6.
(1) Establishment of tumor-bearing mouse models: 24 SPF male nude mice and 12 SPF female nude mice were taken, and anesthetized with isoflurane. Then the skin around the left knee joint was disinfected, and the left hind limb was bent. An insulin needle (29G needle) was inserted into the tibia vertically from concave point of the articular fossa of the tibia, slowly rotated and inserted into the medullary cavity, to inject 25 μl of cell culture (approximately 2×10^6) of PC-3 (12 males), H1975 (12 males), and MDA-MB-231 (12 females). Then disinfection was carried out, and the holes were sealed with sterile bone wax. The animals were placed on a 37° C. hot-plate for rewarming. After resuscitation, they were returned to the cage and continued to be raised.
(2) Testing of tumor-bearing mouse models: After 4 weeks of inoculation, 36 nude mice were scanned using Micro-CT, respectively.
(3) Methods of different treatments and grouping: The 36 successfully modelled tumor-bearing mice were randomly divided into 4 groups. Among them, 2 groups were injected with ^177Lu-DOTA-ibandronic acid with low and high radioactivity (100 μCi, 500 μCi) into the tail vein, respectively, 3 animals in each group; and the animals in the blank control groups were injected with normal saline, and divided into a small volume group and a large volume group (10 μl, 50 μl), 3 animals in each group.
(4) Detection and results of treatment effect: Free movement pain behavior scoring was carried out on days 0, 7, 14, 21, 28, and 35, and used as the main indicator of bone pain relief in the tumor-bearing mice. At the corresponding time points, the tumor-bearing mice were placed in a transparent smooth flat-bottomed plastic box. […]

[4] abbreviates: high activity 500 μCi, compared with all groups.

`CN(CCCCNC(=O)CN1CCN(CC(=O)O)CCN(CC(=O)O)CCN(CC(=O)O)CC1)CCC(O)(P(=O)(O)O)P(=O)(O)O.[68Ga]` [^68Ga-DOTA-ibandronic acid]: the Radiochemical purity in data set [1] (37° C., 10 min) was determined as 99%; in data set [1] (37° C., 30 min), 96%; in data set [1] (37° C., 1 h), 96%; in data set [1] (37° C., 2 h) it was 92%; in data set [1] (37° C., 3 h) it was 90%; in data set [1] (37° C., 4 h), 87%. Besides, the Radiochemical purity in data set [1] (room temperature, 10 min) came to 98%; in data set [1] (room temperature, 30 min), 97%; in data set [1] (room temperature, 1 h), 95%; in data set [1] (room temperature, 2 h), 95%; in data set [1] (room temperature, 3 h) it was 95%; in data set [1] (room temperature, 4 h), 93%. Besides, the “lipid-water distribution coefficient lgP” value in data set [2] is −2.33. Besides, the “plasma protein binding rate (PPB)” value in the data set on plasma protein is recorded as 81%.

Regarding `CN(CCCCNC(=O)CN1CCN(CC(=O)O)CCN(CC(=O)O)CCN(CC(=O)O)CC1)CCC(O)(P(=O)(O)O)P(=O)(O)O.[177Lu]` [^177Lu-DOTA-ibandronic acid], in data set [3] (different doses (100 μCi, 500 μCi) versus normal saline), the “therapeutic efficacy versus control group” value was “higher than that of the corresponding control group”. Also, in data set [3] (setting [4]), the bone pain relief result was “relieved to the greatest extent” and the “survival rate within 5 weeks of administration” value is on record as “relatively highest”.
